pIC50: −log10 of the molar value.
Legend:
human SGLT1 = target: T1, human SGLT1 (Homo sapiens, UniProt P13866); assay: Assay for inhibitory effects on human SGLT1 activity (uptake of methyl-α-D-glucopyranoside); format: cell-based; conditions: CS1-5-11D cells (CHO-K1 stably expressing human SGLT1); uptake of 1 mM 14C-labeled α-MG, 37° C., 1 hour
T1 construct: expressed in transfected cells
T1 sequence (P13866 1-664): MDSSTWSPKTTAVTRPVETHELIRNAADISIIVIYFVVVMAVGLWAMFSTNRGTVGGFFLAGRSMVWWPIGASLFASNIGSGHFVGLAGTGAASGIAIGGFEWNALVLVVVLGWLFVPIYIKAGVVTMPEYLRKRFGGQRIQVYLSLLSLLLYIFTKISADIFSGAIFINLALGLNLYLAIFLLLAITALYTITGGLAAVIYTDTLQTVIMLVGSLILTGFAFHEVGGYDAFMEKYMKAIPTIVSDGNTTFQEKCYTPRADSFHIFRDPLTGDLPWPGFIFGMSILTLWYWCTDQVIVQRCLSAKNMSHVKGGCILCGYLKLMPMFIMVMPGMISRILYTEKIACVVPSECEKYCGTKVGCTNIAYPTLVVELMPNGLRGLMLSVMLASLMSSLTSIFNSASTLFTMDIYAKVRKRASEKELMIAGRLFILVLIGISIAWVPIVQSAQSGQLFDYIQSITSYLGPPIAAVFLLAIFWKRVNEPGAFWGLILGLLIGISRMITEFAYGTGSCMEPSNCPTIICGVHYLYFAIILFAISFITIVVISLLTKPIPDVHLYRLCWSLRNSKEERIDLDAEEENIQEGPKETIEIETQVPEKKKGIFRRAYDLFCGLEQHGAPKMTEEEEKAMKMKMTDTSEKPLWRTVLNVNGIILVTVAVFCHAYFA
Experimental: Assay for Inhibitory Effects on Human SGLT1 Activity
1) Cloning and Construction of the Vector Expressing Human SGLT1
The cDNA library was prepared for PCR amplification by reverse transcription from total RNA deprived from human small intestine (Ori gene) using oligo-dT as a primer. Using this cDNA library as a template, the DNA fragment coding 1 to 2005 bp of human SGLT1 (ACCESSION: M24847), which was reported by Hediger et al., was amplified by PCR method and inserted into the multi-cloning site of pcDNA3.1(−) (Invitrogen). The DNA sequence inserted was perfectly matched to the previously reported sequence of human SGLT1.
2) Establishment of Cell Line Stably Expressing Human SGLT1
The expression vector of human SGLT1 was digested by Sca I into a linear DNA. The linear DNA was transfected into CHO-K1 cells by means of lipofection (Effectene Transfection Reagent: QIAGEN). Neomycin resistant cell lines were selected by culture in the medium containing G418 (1 mg/mL, LIFE TECHNOLOGIES), and then the activity against the uptake of methyl-α-D-glucopyranoside was measured by the method described below. […] CS1-5–11D cells were cultured in the presence of G418 at 200 μg/mL.
3) Measurement of the Inhibitory Activity Against the Uptake of methyl-α-D-glucopyranoside (α-MG)
CS1-5-11D cells were seeded into a 96-well culture plate at a density of 3×10^4 cells/well and cultured for 2 days, and were used in the uptake assay. A mixture of non-labeled (Sigma) and ^14C-labeled α-MG (Amersham Pharmcia Biotec) added to the uptake buffer (pH 7.4; containing 140 mM sodium chloride, 2 mM potassium chloride, 1 mM calcium chloride, 1 mM magnesium chloride, 10 mM 2-[4-(2-hydroxyethyl)-1-piperazinyl]ethane sulfonic acid, and 5 mM tris(hydroxymethyl)aminomethane) at the final concentration of 1 mM. A test compound was dissolved in dimethyl sulfoxide, and then appropriately diluted with distilled water. The test compound solution was added to the uptake buffer containing 1 mM α-MG, and designated as a measurement buffer. For the control group, the measurement buffer without any test compound was prepared. For measuring the basal uptake, a basal buffer which contains 140 mM chorine chloride instead of 140 mM sodium chloride was prepared. After removing the culture medium of CS1-5-11D cells, 180 μL of the pre-treatment buffer (the uptake buffer not containing α-MG) was added to each well and incubated at 37° C. for 10 minutes. After repeating the same treatment, the pre-treatment buffer was removed. To each well was added 75 μL of the measurement buffer or the basal buffer was added and incubated at 37° C. for 1 hour. After removing the measurement buffer, cells were washed twice with 180 μL per well of the washing buffer (the basal buffer containing 10 mM non-labeled α-MG). The cells were solubilized by 75 μL per well of 0.2 mol/L sodium hydroxide. The cell lysates were transferred into PicoPlates (Packard), and then added 150 μL of MicroScint-40 (Packard) and mixed. Radioactivity was measured by means of micro-scintillation counter TopCount (Packard). One hundred % was set to the difference between the uptake in the control group and the basal uptake, and the uptake of methyl α-D-glucopyranoside at each drug concentration were calculated. The drug concentration, at which 50% uptake of methyl α-D-glucopyranoside was inhibited (IC50 value), was calculated using logit plot.

Male C57BL/6J mice = assay: Acute toxicity test; format: in vivo; conditions: n=5, oral 1 g/kg, observed for 48 hours
Experimental: Male C57BL/6J mice (CLEA Japan, Inc.; 17 weeks old, 20–23 g, n=5) were fasted for 4 hours.

diabetic rats = assay: Assay for inhibitory effects on blood glucose level increase in rats (liquid meal tolerance test); format: in vivo; conditions: diabetic rats (nicotinamide/streptozotocin), 10 mg/kg orally, liquid meal 15 kcal/kg, mean±S.E.
Experimental: Assay for Inhibitory Effects on Blood Glucose Level Increase in Rats
1) Preparation of Diabetic Rat Model
Ten weeks old rats were injected nicotinamide (230 mg/kg) intraperitoneally. Fifteen minutes after injection, they were injected streptozotocin (65 mg/kg) intravenously from tail vain under anesthesia with ether. Two weeks later, rats were fasted for 5 hours and then oral glucose tolerance test (2 g/kg) was done.
2) Liquid Meal Tolerance Test
After 16 hours fasted, the diabetic rats were orally administered a test compound (10 mg/kg), which was suspended with 0.5% sodium carboxymethylcellulose (CMC), in the drug-treating group, or 0.5% sodium carboxymethylcellulose (CMC) alone in a control group. Immediately after the compound administration, 15 kcal/kg of liquid meal (No. 038, Conrol diet, assorted with dextrin and maltose; Oriental Yeast Co., Ltd.) was loaded orally. The blood was collected from tail artery immediately before (0 h), at 0.5 and 1 hour after administration, and treated with heparin immediately. The blood was centrifuged, and the plasma was collected to quantify the plasma glucose concentration. The values in the table are presented as the mean±S.E.

SMILES | pIC50 (human SGLT1) | also measured
CC(C)c1[nH]nc(O[C@@H]2O[C@H](CO)[C@@H](O)[C@H](O)[C@H]2O)c1Cc1ccccc1OCc1ccccc1 [Example 2, 4-(2-Benzyloxybenzyl)-3-(β-D-glucopyranosyloxy)-5-isopropyl-1H-pyrazole] | 7.74 | Number of death (Male C57BL/6J mice): 0/5; Plasma glucose concentration (diabetic rats; 0 h (pretreatment)): 126 ± 7 mg/dL; Plasma glucose concentration (diabetic rats; 0.5 h after administration): 194 ± 7 mg/dL; Plasma glucose concentration (diabetic rats; 1 h after administration): 219 ± 16 mg/dL
CC(C)c1[nH]nc(O[C@@H]2O[C@H](CO)[C@@H](O)[C@H](O)[C@H]2O)c1Cc1ccccc1OCc1cccc(Cl)c1 [Example 15, 4-[2-(3-Chlorobenzyloxy)benzyl]-3-(β-D-glucopyranosyloxy)-5-isopropyl-1H-pyrazole] | 9.00 | 
OC[C@H]1O[C@@H](Oc2n[nH]c(C(F)(F)F)c2Cc2ccccc2OCc2ccccc2)[C@H](O)[C@@H](O)[C@@H]1O [Example 21, 4-(2-Benzyloxybenzyl)-3-(β-D-glucopyranosyloxy)-5-trifluoromethyl-1H-pyrazole] | 7.85 | 
CCc1c(Cc2ccccc2OCc2ccccc2)c(O[C@@H]2O[C@H](CO)[C@@H](O)[C@H](O)[C@H]2O)nn1CCO [Example 19, 4-(2-Benzyloxybenzyl)-5-ethyl-3-(β-D-glucopyranosyloxy)-1-(2-hydroxyethyl)-1H-pyrazole] | 7.10 | 

Second part, led by results:

pIC50 (human SGLT1) | SMILES | also measured
7.52 | OCCCn1nc(O[C@@H]2O[C@H](CO)[C@@H](O)[C@H](O)[C@H]2O)c(Cc2ccccc2OCc2ccccc2)c1C(F)(F)F [Example 13, 4-(2-Benzyloxybenzyl)-3-(β-D-glucopyranosyloxy)-1-(3-hydroxypropyl)-5-trifluoromethyl-1H-pyrazole] | 
7.89 | OCCn1nc(O[C@@H]2O[C@H](CO)[C@@H](O)[C@H](O)[C@H]2O)c(Cc2ccccc2OCc2ccccc2)c1C(F)(F)F [Example 11, 4-(2-Benzyloxybenzyl)-3-(β-D-glucopyranosyloxy)-1-(2-hydroxyethyl)-5-trifluoromethyl-1H-pyrazole] | 
8.10 | CC(C)c1c(Cc2ccccc2OCc2ccccc2)c(O[C@@H]2O[C@H](CO)[C@@H](O)[C@H](O)[C@H]2O)nn1CCO [Example 9, 4-(2-Benzyloxybenzyl)-3-(β-D-glucopyranosyloxy)-1-(2-hydroxyethyl)-5-isopropyl-1H-pyrazole] | 
6.71 | CC(C)c1[nH]nc(O[C@@H]2O[C@H](CO)[C@@H](O)[C@H](O)[C@H]2O)c1Cc1ccccc1OC1CCCCCC1 [Example 51, 4-(2-Cycloheptyloxybenzyl)-3-(β-D-glucopyranosyloxy)-5-isopropyl-1H-pyrazole] | 
7.46 | CC(C)c1[nH]nc(O[C@@H]2O[C@H](CO)[C@@H](O)[C@H](O)[C@H]2O)c1Cc1ccccc1OCc1cccc(O)c1 [Example 12, 3-(β-D-Glucopyranosyloxy)-4-[2-(3-hydroxybenzyloxy)benzyl]-5-isopropyl-1H-pyrazole] | 

Source: US7217697B2, “Glucopyranosyloxypyrazole derivative medicinal composition containing the same medicinal use thereof and intermediate therefor” (Kissei Pharmaceutical Co., Ltd., priority 2001, dated 2007)
